According to patent publication EP4653012A1 (Jiangsu Hengrui Pharmaceuticals Co., Ltd., priority 2023, dated 2024):

Assays:
[1] = test system: MDA-MB-468 (HER2-); assay: In vitro cytotoxic activity screening (CTG assay); format: cell-based
Protocol: (§1) In this experiment, the ATP content was determined using CTG to reflect the survival condition of the tumor cells. […] The killing effect of the toxin molecule was then assayed according to this condition.
(§2) According to the purpose of the experiment, two disease models of breast cancer and NSCLC were selected, and three cell strains of SKBR3 tumor cells (HER2+, ATCC, Cat# HTB-30), MDA-MB-468 (HER2-, ATCC, Cat# HTB-132) and A549 (human non-small cell lung cancer cells, ATCC, Cat# CCL-185) were selected for screening.
(§3) The cells were counted, and 4.3 × 10^5, 7.2 × 10^5 and 11.5 × 10^5 cells were each added to a culture solution to give a final volume of 26 mL. 180 µL of cell suspension was added to each well in columns 2 to 11 of a 96-well plate (Corning, Cat# 3903) to give cell densities of 3K, 5K, and 8K per well. Wells in column 12 were each filled with 200 µL of culture solution and the remaining wells were each filled with PBS. The SKBR3 and MDA-MB-468 cells were subjected to the same operations described above. […] 2 mM stock solution (stock solution diluted 10-fold in DMSO) was prepared in column 1 of drug preparation plate 1, and then 10-fold gradient dilution in DMSO was performed through column 10, and the wells in column 11 were filled with DMSO. 95 µL of corresponding culture solution was added into each well from column 2 to column 11 of the drug preparation plate 2, and 5 µL of solution was pipetted from column 2 to column 11 of drug preparation plate 1 to drug preparation plate 2. The solution was mixed well, and 20 µL of solution was pipetted and added into the plated cells. The cells were then cultured for 3 days and 5 days. • 4) CTG assay (Cell Titer-GloTM, luminescent cell viability assay, Promega): the cell plates were taken out on day 3 and day 5 and equilibrated to room temperature. 90 µL of CTG was added into each well, and the mixture was reacted at room temperature for 10 min in the dark. The luminescence value was read using a microplate reader and IC50 was calculated.

[2] = test system: A549 (human non-small cell lung cancer cells); assay: In vitro cytotoxic activity screening (CTG assay); format: cell-based
Protocol: as §1, §2, §3

[3] = test system: SKBR3 tumor cells (HER2+); assay: In vitro cytotoxic activity screening (CTG assay); format: cell-based
Protocol: as §1, §2, §3

[4] = Pharmacokinetic study in beagles, intravenous administration, plasma by LC/MS/MS; settings: 0.5 mg/kg
Protocol: The pharmacokinetic behavior of the compound of the present disclosure in dogs was studied, and its pharmacokinetic profile was evaluated.
Six male beagles were divided into 2 groups of 3, purchased from Shanghai Medicilon Inc., and subjected to an administration test.
The collected blood samples were each placed in EDTA-K2 anticoagulant blood collection tubes, and the collected whole blood was placed on ice and centrifuged within 1 h to isolate the plasma (centrifugal force: 2200 g, centrifugal time: 10 min, 2-8 °C). Plasma samples were stored in a refrigerator at -80 °C prior to testing.
The content of the test compounds in beagle plasma after the injection was determined: 25 µL of beagle plasma at each time point after the administration was mixed with 50 µL (100 ng/mL) of internal standard solution camptothecin (China National Institutes for Food and Drug Control) and 200 µL of acetonitrile. The mixture was vortexed for 5 min and centrifuged for 10 min (3700 rpm), and 3-4 µL of the supernatant of the plasma sample was taken for LC/MS/MS assay (API4000 triple quadrupole tandem mass spectrometer (No. 2), Applied Biosystems, USA; Shimadzu, LC-30AD ultra high performance liquid chromatography system, Shimadzu, Japan).

| Compound | IC50 ([1]; Homo sapiens, MDA-MB-468) [nM] | Maximum inhibition rate ([1]; MDA-MB-468, CTG) [%] | Maximum inhibition rate ([2]; A549, CTG) [%] | IC50 ([2]; Homo sapiens, A549) [nM] | IC50 ([3]; Homo sapiens, SK-BR-3) [nM] | Maximum inhibition rate ([3]; SKBR3, CTG) [%] | Plasma concentration C5min ([4]; beagles, intravenous) [µg/mL] | concentration at 5 min ([4]; male, beagle, dog, in vivo, iv) [µg/mL] |
| --- | --- | --- | --- | --- | --- | --- | --- | --- |
| C=C1C[C@@H]2CC[C@@]34C[C@H]5O[C@H]6[C@@H](O3)[C@H]3O[C@H](CC[C@@H]3O[C@H]6[C@H]5O4)CC(=O)C[C@@H]3[C@@H](OC)[C@@H](C[C@@H](CN)OC)O[C@H]3C[C@H]3O[C@@H](CC[C@@H]1O2)C[C@@H](C)C3=C [Compound 1] | 0.183 | 88.01 | 81.34 | 0.515 | 0.205 | 96.87 | 0.0821 |  |
| C=C1C[C@@H]2CC[C@@]34C[C@H]5O[C@H]6[C@@H](O3)[C@H]3O[C@H](CC[C@@H]3O[C@H]6[C@H]5O4)CC(=O)C[C@@H]3[C@@H](OC)[C@@H](C[C@H](O)CN)O[C@H]3C[C@H]3O[C@@H](CC[C@@H]1O2)C[C@@H](C)C3=C [Eribulin, eribulin, reference compound] |  |  |  |  |  |  |  | 0.217 |
